In ChEMBL document CHEMBL1154570, “HIV-inhibitory cembrane derivatives from a Philippines collection of the soft coral Lobophytum species” (J Nat Prod, 2000):
Values after ≈ are worked out from the molar mass of the structure shown.

Tests used:
[1] = tested on: Human immunodeficiency virus 1; assay: Antiviral activity against HIV1 assessed as inhibition of cytopathic effect by cell based XTT assay; type: functional, organism-based
[2] = tested on: Human immunodeficiency virus 1; assay: Antiviral activity against HIV1 assessed as cellular protection by cell based XTT assay; type: functional

Compound | EC50 [1] | IC50 [1] | Activity [2]
C/C1=C\[C@@H]2OC(=O)[C@@H](CN(C)C)[C@@H]2CC/C(C)=C/CC/C(C(=O)O)=C/CC1 | 3.3 µg/mL (≈ 8.79 µM) | 10.2 µg/mL (≈ 27.2 µM) | 55%
C=C1C(=O)O[C@H]2/C=C(\C)CC/C=C(\C(=O)O)CC/C=C(\C)CC[C@@H]12 [(7Z)-LOBOHEDLEOLIDE] | 4.6 µg/mL (≈ 13.9 µM) | 7.6 µg/mL (≈ 23 µM) | 55%
C=C1C(=O)O[C@H]2/C=C(\C)CC/C=C(/C(=O)O)CC/C=C(\C)CC[C@@H]12 [LOBOHEDLEOLIDE] | 3.6 µg/mL (≈ 10.9 µM) | 9 µg/mL (≈ 27.2 µM) | 55%
